# Test results reported in PubChem BioAssay AID1963844 (Molecular Pharmacology Branch, DTP, NCI, 2024).
# Tested on: 422866-222-R5-J1-PDC complex spheroid viability
# Experiment: Anticancer human tumor 422866-222-R5-J1-PDC patient-derived pancreatic adenocarcinoma cell line growth inhibition [POLQ]
# Details: for IC50: curve of first compound; for viability, T/C: stronger effect = lower value
# How it was run: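 Patient-derived tumour cells were co-cultured with HUVEC and mesenchymal stem cells as multicellular spheroids at 37 °C. They were treated with POLQ inhibitors (novobiocin, ART-558, RP6685) alone or combined with other agents. Top concentrations were at or near clinical Cmax (otherwise 10 microM; SN-38 at 1 microM), decreasing in half-log steps.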
# [1] = second compound 0.0316 µM, first compound 0.0316 µM
# [2] = second compound 0.0316 µM, first compound 0.1 µM
# [3] = second compound 0.0316 µM, first compound 0.316 µM
# [4] = second compound 0.0316 µM, first compound 1 µM
# [5] = second compound 0.1 µM, first compound 0.0316 µM
# [6] = second compound 0.1 µM, first compound 0.1 µM
# [7] = second compound 0.1 µM, first compound 0.316 µM
# [8] = second compound 0.1 µM, first compound 1 µM
# [9] = second compound 0.316 µM, first compound 0.0316 µM
# [10] = second compound 0.316 µM, first compound 0.1 µM
# [11] = second compound 0.316 µM, first compound 0.316 µM
# [12] = second compound 0.316 µM, first compound 1 µM
# [13] = second compound 1 µM, first compound 0.0316 µM
# [14] = second compound 1 µM, first compound 0.1 µM
# [15] = second compound 1 µM, first compound 0.316 µM
# [16] = second compound 1 µM, first compound 1 µM
# [17] = second compound 3.16 µM, first compound 0.0316 µM
# [18] = second compound 3.16 µM, first compound 0.1 µM
# [19] = second compound 3.16 µM, first compound 0.316 µM
# [20] = second compound 3.16 µM, first compound 1 µM
# [21] = second compound 10 µM, first compound 0.0316 µM
# [22] = second compound 10 µM, first compound 0.1 µM
# [23] = second compound 10 µM, first compound 0.316 µM
# [24] = second compound 10 µM, first compound 1 µM
# 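Further: spheroids exposed to compounds for one week before readout.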
# 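Wherever viability, T/C is given: percent of DMSO vehicle wells luminescence so 100% = untreated viability.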
compound,measurement,setting,value
CC1COCCN1c1cc(-c2ccnn2C)c2ccnc(-c3ccn[nH]3)c2n1 (centres undefined) + Nc1ccc(C#CCN(C(=O)Cc2ncc(C(F)(F)F)cc2C(F)(F)F)c2ccc(F)cc2)nn1,IC50,second compound 0.0316 µM,> 10000 nM
same,IC50,second compound 0.1 µM,> 10000 nM
same,IC50,second compound 0.316 µM,> 10000 nM
same,IC50,second compound 1 µM,10000 nM
same,IC50,second compound 3.16 µM,232 nM
same,IC50,second compound 10 µM,> 10000 nM
same,"viability, T/C",[1],110%
same,"viability, T/C",[2],52.5%
same,"viability, T/C",[3],35.8%
same,"viability, T/C",[4],31.4%
same,"viability, T/C","second compound 0.0316 µM, first compound 3.16 µM",72.4%
same,"viability, T/C","second compound 0.0316 µM, first compound 10 µM",67.8%
same,"viability, T/C",[5],112%
same,"viability, T/C",[6],49.3%
same,"viability, T/C",[7],44.4%
same,"viability, T/C",[8],37.4%
same,"viability, T/C","second compound 0.1 µM, first compound 3.16 µM",45%
same,"viability, T/C","second compound 0.1 µM, first compound 10 µM",81.1%
same,"viability, T/C",[9],90.7%
same,"viability, T/C",[10],45.4%
same,"viability, T/C",[11],33.7%
same,"viability, T/C",[12],34%
same,"viability, T/C","second compound 0.316 µM, first compound 3.16 µM",68.2%
same,"viability, T/C","second compound 0.316 µM, first compound 10 µM",83.4%
same,"viability, T/C",[13],87%
same,"viability, T/C",[14],62.4%
same,"viability, T/C",[15],38.5%
same,"viability, T/C",[16],29.9%
same,"viability, T/C","second compound 1 µM, first compound 3.16 µM",61.5%
same,"viability, T/C","second compound 1 µM, first compound 10 µM",73%
same,"viability, T/C",[17],96.6%
same,"viability, T/C",[18],51.6%
same,"viability, T/C",[19],32.6%
same,"viability, T/C",[20],29.8%
same,"viability, T/C","second compound 3.16 µM, first compound 3.16 µM",61.5%
same,"viability, T/C","second compound 3.16 µM, first compound 10 µM",74.2%
same,"viability, T/C",[21],102%
same,"viability, T/C",[22],41.1%
same,"viability, T/C",[23],39.6%
same,"viability, T/C",[24],36.2%
same,"viability, T/C","second compound 10 µM, first compound 3.16 µM",79.8%
same,"viability, T/C","second compound 10 µM, first compound 10 µM",74.8%
CCc1c2c(nc3ccc(O)cc13)-c1cc3c(c(=O)n1C2)COC(=O)[C@]3(O)CC + Nc1ccc(C#CCN(C(=O)Cc2ncc(C(F)(F)F)cc2C(F)(F)F)c2ccc(F)cc2)nn1,IC50,second compound 0.0316 µM,< 3.16 nM
same,IC50,second compound 0.1 µM,< 3.16 nM
same,IC50,second compound 0.316 µM,< 3.16 nM
same,IC50,second compound 1 µM,< 3.16 nM
same,IC50,second compound 3.16 µM,< 3.16 nM
same,IC50,second compound 10 µM,< 3.16 nM
same,"viability, T/C","second compound 0.0316 µM, first compound 0.00316 µM",40%
same,"viability, T/C","second compound 0.0316 µM, first compound 0.01 µM",32.4%
same,"viability, T/C",[1],33.4%
same,"viability, T/C",[2],33%
same,"viability, T/C",[3],35%
same,"viability, T/C",[4],16.2%
same,"viability, T/C","second compound 0.1 µM, first compound 0.00316 µM",39.4%
same,"viability, T/C","second compound 0.1 µM, first compound 0.01 µM",37.8%
same,"viability, T/C",[5],35%
same,"viability, T/C",[6],32.4%
same,"viability, T/C",[7],32.8%
same,"viability, T/C",[8],20.6%
same,"viability, T/C","second compound 0.316 µM, first compound 0.00316 µM",35.8%
same,"viability, T/C","second compound 0.316 µM, first compound 0.01 µM",38%
same,"viability, T/C",[9],34.8%
same,"viability, T/C",[10],33.3%
same,"viability, T/C",[11],33%
same,"viability, T/C",[12],16.9%
same,"viability, T/C","second compound 1 µM, first compound 0.00316 µM",38.4%
same,"viability, T/C","second compound 1 µM, first compound 0.01 µM",32.3%
same,"viability, T/C",[13],32.7%
same,"viability, T/C",[14],31%
same,"viability, T/C",[15],30.5%
same,"viability, T/C",[16],21.7%
same,"viability, T/C","second compound 3.16 µM, first compound 0.00316 µM",36.2%
same,"viability, T/C","second compound 3.16 µM, first compound 0.01 µM",31.6%
same,"viability, T/C",[17],29.4%
same,"viability, T/C",[18],32.7%
same,"viability, T/C",[19],39.1%
same,"viability, T/C",[20],23.1%
same,"viability, T/C","second compound 10 µM, first compound 0.00316 µM",38.6%
same,"viability, T/C","second compound 10 µM, first compound 0.01 µM",35%
same,"viability, T/C",[21],36.9%
same,"viability, T/C",[22],28.7%
same,"viability, T/C",[23],31.2%
same,"viability, T/C",[24],18.6%
